From PubChem BioAssay (NCI) come the findings set out here.

Assay in all cases: DTP human tumour cell line panel, 48 h
Assay [1] concerns ACHN renal.
In assay [2] the test system is EKVX NSCLC.
Assay [3] relates to HCT-15 colon.
The test system of assay [4] is IGROV1 ovarian.
For assay [5], the system named is MCF7 breast.
Assay [6] concerns NCI-H522 lung.
Assay [7] relates to SF-295 CNS.
Assay [8] concerns SNB-75 CNS.
Assay [9] relates to SR leukemia.
Assay [10] relates to UACC-62 melanoma.

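Where inhibition never reached the appropriate level, the endpoint shown equals the highest concentration tested. Otherwise, values were interpolated linearly from a five-concentration, 48-hour dose response in 96-well plates. GI50 is the concentration that inhibits growth by half. Definition used: TGI = concentration required for complete inhibition of growth.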

In general, GI50 refers to the concentration at which growth is held to half of that of the control. For orientation: TGI means the concentration giving total growth inhibition. Lower therefore signals more potent growth arrest. In the case of `O=C1CCC/C=C\C[C@H]2C=C(Cl)C(=O)/C2=C/C[C@H](CCCCC(F)(F)F)OC(=O)CCC/C=C\C[C@H]2C=C(Cl)C(=O)/C2=C/C[C@H](CCCCC(F)(F)F)O1`, the GI50 was 0.262 µM in assay [1]; 0.283 µM in assay [2]; 0.297 µM in [3]; 0.231 µM in assay [4]; 0.176 µM in assay [5]; 0.166 µM in [6]. Moreover, the GI50 was 0.292 µM in assay [7], 1.23 µM in [8], 0.198 µM in [9] and 0.149 µM in assay [10]. Moreover, the TGI in assay [1] was found to be 1.02 µM; in assay [2], 1.18 µM; in assay [3] it was 1.32 µM; in assay [4], 0.791 µM; in assay [5] it was 0.973 µM; in assay [6], 0.384 µM. Also, the TGI in assay [7] is 1.19 µM; in assay [8], 6.24 µM; in [9], 0.748 µM; in assay [10], 0.352 µM.
With `O=C(Cn1ccnc1[N+](=O)[O-])NCCO`, the TGI in [1], in [2], in assay [3], in assay [4], in assay [5] and in assay [6] was above 100 µM each time. Besides, the TGI in [7], in assay [8], in assay [9] and in [10] was above 100 µM throughout.
Take `Cc1cc2c(-c3nc4ccccc4[nH]3)c(O)c(O)cc2c(O)c1-c1c(C)cc2c(-c3nc4ccccc4[nH]3)c(O)c(O)cc2c1O`: the GI50 in [1] is 0.0292 µM; in assay [2], 0.0315 µM; in [3] it was 0.0156 µM; in assay [4] it was 0.0416 µM; in [5], 0.018 µM; in assay [6], 0.0449 µM. Moreover, the results for the concentration for 50% growth inhibition (GI50) in assay [7], in [8] and in [9] were 0.0227 µM, 0.0389 µM and 0.035 µM, respectively. Moreover, the TGI in assay [1] is 0.697 µM; in assay [2], above 28.9 µM; in assay [3] it was 19.8 µM; in assay [4] it was above 23.1 µM; in assay [5] it was 6.84 µM; in assay [6], 0.878 µM. Also, the total growth inhibition concentration (TGI) in assay [7] is 1.58 µM; in assay [8], 2.11 µM; in assay [9] it was above 50 µM.
For the compound `COc1ccccc1/C=C1\COc2ccc(O)c(O)c2C1=O`, the GI50 in assay [1] is 1.31 µM; in assay [2], 3 µM; in [3], 0.823 µM; in assay [4] it was 1.46 µM; in assay [5], 0.36 µM; in [6], 0.214 µM. For the same compound, the figures for the GI50 in assay [7], in assay [9] and in [10] were 4.49 µM, 0.407 µM and 1.59 µM, respectively. Moreover, the TGI in assay [1] is 2.64 µM; in [2], 46.1 µM; in [3], 4.54 µM; in assay [4] it was 4.21 µM; in assay [5] it was above 100 µM; in assay [6], 0.656 µM. The values for the TGI in assay [7], in assay [9] and in assay [10] were above 100 µM, 11.9 µM and 3.29 µM, respectively.
Turning to `COC1CC(OC2OC(CO)C(O)C(O)C2O)/C(=C\C#N)C(O)C1OC` (configuration not stated), the TGI in assay [1], in assay [2], in assay [3], in assay [4], in assay [5] and in assay [6] was above 100 µM throughout. Besides, the TGI in [7], in assay [9] and in assay [10] was above 100 µM in each case.
For `FC(F)(F)c1ccc2nc(-c3nc(-c4ccccc4)n4ccccc34)[nH]c2c1`, the GI50 in assay [1] is 2.23 µM; in assay [3] it was 3.5 µM; in assay [4], 4.03 µM; in assay [5], 2.4 µM; in [6] it was 2.99 µM; in assay [7], 3.85 µM. Also, the GI50 in [8] is 1.68 µM; in assay [9] it was 3.65 µM; in assay [10] it was 3.19 µM. For the same compound, the total growth inhibition concentration (TGI) in assay [1] is 6.12 µM; in assay [3], 22 µM; in assay [4], 20.5 µM; in assay [5], 21 µM; in assay [6], 9.88 µM; in assay [7], 15.1 µM. Further, the TGI is 3.94 µM in assay [8], above 100 µM in [9] and 17.9 µM in assay [10].
`COc1ccc(C(=O)CC2(O)C(=O)Nc3c(Cl)ccc(Cl)c32)cc1` (configuration not stated): the GI50 in assay [1] was 12.6 µM; in assay [3] it was 0.885 µM; in assay [4], 4.95 µM; in [5], 0.64 µM; in assay [6], 0.406 µM; in assay [7], 1.35 µM. The GI50 in [8] is 1.89 µM; in assay [9] it was 0.413 µM; in assay [10], 0.791 µM. Besides, the TGI is above 100 µM in assay [1]; 86.4 µM in [3]; above 100 µM in assay [4]; above 100 µM in assay [5]; 3.58 µM in assay [6]; 14.8 µM in [7]. Moreover, the TGI is above 29.8 µM in [8], 56.1 µM in assay [9] and above 100 µM in assay [10].
For the compound `CCOC(=O)c1cnc2ccc(Cl)cc2c1NCCCN(C)C`, the GI50 in [1] was 9.85 µM; in assay [3], 25.2 µM; in [4] it was 35 µM; in assay [5], 19.4 µM; in assay [6] it was 16.2 µM; in assay [7], 22.9 µM. For the same compound, the GI50 in assay [8] was 0.684 µM; in [9], 6.42 µM; in assay [10], 16.4 µM. Also, the TGI in assay [1] is above 100 µM; in [3], above 100 µM; in [4] it was above 100 µM; in [5] it was 75.6 µM; in [6], 39.4 µM; in [7], above 100 µM. The TGI in assay [8] came to 77.2 µM; in assay [9], 70.4 µM; in [10], 32.8 µM.
Regarding `Clc1ccc(Cl)c(N/N=C\c2c[nH]c3ccccc23)c1`, the GI50 was 12 µM in [1]; 2.36 µM in assay [2]; 8.81 µM in assay [3]; 0.0611 µM in [4]; above 100 µM in assay [5]; 1.78 µM in assay [6]. Moreover, the GI50 in assay [7] is 13.8 µM; in assay [9] it was 4.14 µM; in [10], 9.92 µM. Moreover, the concentration for total growth inhibition (TGI) in assay [1] is 32.6 µM; in assay [2], 15.5 µM; in assay [3], above 100 µM; in assay [4], 0.623 µM; in [5], above 100 µM; in assay [6], 14.8 µM. The TGI in [7] was determined as 70.4 µM; in assay [9], 32.2 µM; in assay [10], 22.6 µM.
